Here are results for 6 substances from patent US6323315A, “Dolastatin peptides” (priority 2000, dated 2001).

For assay [1], the system named is human lymphoma cell lines. The note with it: cited from earlier work.
The subject of assay [2] is tubulin. The note with it: cited from earlier work.
Assay [3] concerns P388 lymphocytic leukemia (PS system) cell line. As to conditions: cited from earlier work.
In assay [4] the test system is KM20L2 (colon cancer). The experiment in a line: in vitro cytotoxicity, cultured cancer cell panel: KM20L2. In kind it is cell-based, Human. As to conditions: for GI-50: KM20L2, colon, 48 hours; for LC-50 / TGI: KM20L2; for LC-50: -50% growth; for TGI: total growth inhibition (0% growth). The protocol:
(§1) Compounds prepared according to Examples 1-14 above were evaluated for in vitro cytotoxicity against a panel of cultured cancer cells, including the cell lines OVCAR-3 (ovarian cancer), SF-295 (central nervous system), A498 (renal cancer), NCI-H460 (non-small lung carcinoma), KM20L2 (colon cancer) and SK-MEL-5 (melanoma). For each cell line, each compound was tested at 5 concentrations, 100 μg/mL, 10 μg/mL, 1 μg/mL, 0.1 μg/mL and 0.01 μg/mL. Percent growth values were calculated for each concentration, and the two or three concentrations with growth values above, below or near 50% growth (relative to control) were used to calculate the ED50 value using a linear regression calculation. In cases in which 50% growth inhibition was not observed for any of the concentrations, the ED50 value was expressed as ED50 >100 μg/mL. If the growth inhibition was greater than 50% for each concentration, the ED50 was expressed as <0.01 μg/mL. Similar calculations were performed for total growth inhibition (TGI; 0% growth) and LC50 (-50% growth).
(§2) At the start of each experiment, cells from the in vitro cell culture were inoculated into tubes or microtiter plates. One set of control tubes/plates was immediately counted to determine the cell count at the beginning of the experiment. This is the "baseline count" or T0 reading. After 48 hours, a second set of control tubes/plates is analyzed to determine the control growth value. The growth or death of cells relative to the T0 value is used to define the percent growth.

Assay [5] has as its system SK-MEL-5 (melanoma). Kind of assay: in vitro cytotoxicity, cultured cancer cell panel: SK-MEL-5. In kind it is cell-based, Human. The note with it: for GI-50: SK-MEL-5, melanoma, 48 hours; for LC-50 / TGI: SK-MEL-5; for LC-50: -50% growth; for TGI: total growth inhibition (0% growth). The protocol:
as §1, §2

Assay [6] has as its system P-388 Lymphocytic Leukemia. The experiment in a line: Murine P-388 lymphocytic leukemia cell line inhibition. The class given is cell-based. As to conditions: P-388 mouse leukemia.
For assay [7], the system named is A498 (renal cancer). Kind of assay: in vitro cytotoxicity, cultured cancer cell panel: A498. In kind it is cell-based, Human. The note with it: for GI-50: A498, renal, 48 hours; for LC-50 / TGI: A498; for LC-50: -50% growth; for TGI: total growth inhibition (0% growth). The protocol:
as §1, §2

Assay [8] has as its system NCI-H460 (non-small lung carcinoma). The experiment in a line: in vitro cytotoxicity, cultured cancer cell panel: NCI-H460. The class given is cell-based, Human. The note with it: for GI-50: NCI-H460, lung-NSC, 48 hours; for LC-50 / TGI: NCI-H460; for LC-50: -50% growth; for TGI: total growth inhibition (0% growth). The protocol: as §1, §2
In assay [9] the test system is SF-295 (central nervous system). Kind of assay: in vitro cytotoxicity, cultured cancer cell panel: SF-295. In kind it is cell-based, Human. The note with it: for GI-50: SF-295, CNS, 48 hours; for LC-50 / TGI: SF-295; for LC-50: -50% growth; for TGI: total growth inhibition (0% growth). The protocol: as §1, §2
Assay [10] has as its system OVCAR-3 (ovarian cancer). The experiment in a line: in vitro cytotoxicity, cultured cancer cell panel: OVCAR-3. In kind it is cell-based, Human. As to conditions: for GI-50: OVCAR-3, ovarian, 48 hours; for TGI / LC-50: OVCAR-3; for TGI: total growth inhibition (0% growth); for LC-50: -50% growth. The protocol: as §1, §2

Dolastatin 10: in assay [1], the “growth of four different human lymphoma cell lines” value is “effectively inhibit”. In assay [2], the tubulin polymerization result is reported as “effectively inhibit”.
As for Dolastatin 15, in assay [1], the “growth of four different human lymphoma cell lines” value is “effectively inhibit”. In addition, the tubulin polymerization entry in assay [2] is reported as “effectively inhibit”. Moreover, in [3], the “growth of P388 lymphocytic leukemia (PS system) cell line” value is “inhibits the growth”.
Regarding “Dov-Val-Dil-Dap 1-bicyclo[3.3.0]octane amide [Compound 13b]”, the GI-50 in [4] worked out at 0.00036 µg/mL; in assay [5], 0.0007 µg/mL; in [7], 0.002 µg/mL; in assay [8], 0.00047 µg/mL. Besides, the LC-50 in assay [4], in assay [5], in assay [7] and in assay [8] was above 0.01 µg/mL in each case. Moreover, the TGI in assay [4], in [5], in [7] and in assay [8] was above 10 ng/mL in each case. Further, in [6], the ED50 stood at 2.2 ng/mL.
Regarding “Dov-Val-Dil-Dap 2-[p-aminophenyl]ethylamide [Compound 29d]”, the GI-50 in [4] is 4.9e-05 µg/mL; in [9], 0.00053 µg/mL; in assay [10], 5e-05 µg/mL; in [5] it was 0.00023 µg/mL; in [7], above 0.01 µg/mL; in assay [8], 0.00013 µg/mL. In addition, the TGI in assay [4] is above 10 ng/mL; in [10], 0.79 ng/mL; in [8], 0.87 ng/mL. Moreover, the ED50 in [6] turned out to be 0.338 ng/mL.
On to “Dov-Val-Dil-Dap-Met 1-(bicyclo[3.3.0]octane) Amide [Compound 12d]”, for which the GI-50 in assay [4] came to 0.0003 µg/mL; in [9] it was 0.00047 µg/mL; in assay [10], 0.00031 µg/mL; in assay [5] it was 0.00044 µg/mL; in assay [7] it was 0.00048 µg/mL; in assay [8], 0.00029 µg/mL. The LC-50 in [4], in assay [9], in [10], in [5], in [7] and in assay [8] was above 0.01 µg/mL each time. Also, the TGI in [4] is 0.9 ng/mL; in assay [9] it was above 10 ng/mL; in assay [10], above 10 ng/mL; in assay [5], above 10 ng/mL; in assay [7] it was above 10 ng/mL; in [8], 4 ng/mL.
For “Dov-Val-Dil-Dap-Phe Amide [Compound 28d]”, the GI-50 in assay [4] stood at 2e-07 µg/mL; in assay [9] it was 6.1e-07 µg/mL; in [10] it was 3e-07 µg/mL; in assay [5], 5.6e-07 µg/mL; in assay [7], 3.4e-06 µg/mL; in assay [8], 4.1e-07 µg/mL. Besides, the LC-50 in assay [4], in assay [9], in assay [10], in assay [5], in assay [7] and in assay [8] was above 0.0001 µg/mL in each case. Moreover, the TGI is 0.0041 ng/mL in [4]; above 0.1 ng/mL in assay [9]; 0.011 ng/mL in assay [10]; above 0.1 ng/mL in [5]; above 0.1 ng/mL in assay [7]; above 0.1 ng/mL in assay [8]. This substance displayed an ED50 in assay [6] of 0.00255 ng/mL.
